Assay: xn = mol fraction of the nth substance listed
Conditions: Liquid, Vibrating tube method

COC(=O)c1ccccc1 [methyl benzoate] + C1CCCCC1
mass density [kg/m3]
Conditions	x1 = 0.0985	x1 = 0.1963	x1 = 0.2939	x1 = 0.3942	x1 = 0.4955	x1 = 0.596	x1 = 0.6975	x1 = 0.7993	x1 = 0.8982
318.15 K, 30000 kPa	–	–	873.9	905.1	936.2	967.6	997.8	1026.6	1054.7
318.15 K, 35000 kPa	815.3	846.3	877.5	908.6	939.6	971	1001	1029.7	1057.8
318.15 K, 40000 kPa	818.8	849.9	880.9	912	942.9	974.2	1004.1	1032.7	1060.7
318.15 K, 45000 kPa	822.2	853.2	884.3	915.2	946.1	977.3	1007.1	1035.7	1063.6
318.15 K, 50000 kPa	825.5	856.5	887.5	918.4	949.2	980.3	1010.1	1038.6	1066.5
318.15 K, 55000 kPa	828.7	859.7	890.6	921.5	952.3	983.3	1013	1041.5	1069.3
318.15 K, 60000 kPa	831.6	862.5	893.4	924.3	955.1	986	1015.7	1044.1	1071.8
328.15 K, 100 kPa	776	807.7	839.6	871.6	903.6	935.6	966.7	996.3	1025.1
328.15 K, 1000 kPa	777	808.7	840.5	872.5	904.4	936.4	967.4	997	1025.8
328.15 K, 5000 kPa	781.2	812.7	844.5	876.3	908.1	939.9	970.6	1000.2	1028.9
328.15 K, 10000 kPa	786.2	817.6	849.2	880.4	912.3	944.1	974.8	1004	1032.6
328.15 K, 15000 kPa	790.7	822.1	853.6	885.1	916.5	948.1	978.6	1007.7	1036.2
328.15 K, 20000 kPa	795.2	826.5	857.8	889.2	920.5	951.9	982.3	1011.3	1039.7
328.15 K, 25000 kPa	799.4	830.6	861.8	893.1	924.3	955.6	985.9	1014.7	1043
328.15 K, 30000 kPa	803.4	834.5	865.7	896.9	928	959.2	989.4	1018.1	1046.3
328.15 K, 35000 kPa	807.3	838.3	869.4	900.5	931.5	962.7	992.7	1021.4	1049.4
328.15 K, 40000 kPa	811	842	873	904.1	935	966	996	1024.5	1052.5
328.15 K, 45000 kPa	814.6	845.5	876.5	907.5	938.3	969.3	999.1	1027.6	1055.5
328.15 K, 50000 kPa	818	848.9	879.8	910.8	941.5	972.5	1002.2	1030.7	1058.5
328.15 K, 55000 kPa	821.3	852.2	883.1	914	944.7	975.6	1005.3	1033.6	1061.4
328.15 K, 60000 kPa	824.3	855.5	886.1	916.9	947.6	978.3	1008	1036.3	1064.2
338.15 K, 100 kPa	766.2	798	829.9	861.9	893.9	926	957	986.6	1015.6
338.15 K, 1000 kPa	767.2	799	830.9	862.8	894.7	926.8	957.8	987.4	1016.3
338.15 K, 5000 kPa	771.8	803.4	835.1	866.9	898.7	930.5	961.3	990.8	1019.6
338.15 K, 10000 kPa	777	808.5	840	871.6	903.2	934.9	965.6	994.9	1023.5
338.15 K, 15000 kPa	782	813.3	844.7	876.2	907.6	939.2	969.6	998.8	1027.2
338.15 K, 20000 kPa	786.7	817.9	849.2	880.5	911.8	943.2	973.5	1002.5	1030.8
338.15 K, 25000 kPa	791.1	822.3	853.4	884.6	915.8	946.9	977.3	1006.2	1034.4
338.15 K, 30000 kPa	795.4	826.4	857.5	888.6	919.6	950.8	980.9	1009.7	1037.8
338.15 K, 35000 kPa	799.4	830.4	861.4	892.4	923.4	954.5	984.4	1013.1	1040.9
338.15 K, 40000 kPa	803.3	834.2	865.2	896.1	927	958	987.8	1016.4	1044.3
338.15 K, 45000 kPa	807	837.9	868.8	899.6	930.4	961.4	991.1	1019.6	1047.5
338.15 K, 50000 kPa	810.6	841.5	872.3	903.1	933.8	964.7	994.4	1022.8	1050.5
338.15 K, 55000 kPa	814.1	844.9	875.7	906.4	937.1	967.9	997.5	1025.8	1053.6
338.15 K, 60000 kPa	817.3	848.1	878.8	909.7	940.1	971.1	1000.4	1028.6	1056.3
348.15 K, 100 kPa	756.3	788.1	820	852.1	884.1	916.3	947.3	976.9	1005.9
348.15 K, 1000 kPa	757.4	789.2	820.9	853	885	917.1	948.1	977.7	1006.7
348.15 K, 5000 kPa	762.1	793.8	825.6	857.4	889.1	921.1	951.8	981.3	1010.1
348.15 K, 10000 kPa	767.9	799.3	830.9	862.4	894	925.8	956.3	985.5	1014.3
348.15 K, 15000 kPa	773.1	804.4	835.8	867.2	898.6	930.2	960.6	989.7	1018.2
348.15 K, 20000 kPa	778.1	809.3	840.5	871.8	903.1	934.4	964.7	993.6	1022
348.15 K, 25000 kPa	782.8	813.9	845	876.1	907.3	938.5	968.7	997.5	1025.7
348.15 K, 30000 kPa	787.2	818.2	849.3	880.3	911.3	942.4	972.5	1001.1	1029.3
348.15 K, 35000 kPa	791.5	822.4	853.4	884.2	915.2	946.2	976.1	1004.7	1032.7
348.15 K, 40000 kPa	795.5	826.4	857.3	888.1	918.9	949.9	979.7	1008.2	1036.1
348.15 K, 45000 kPa	799.5	830.3	861.1	891.8	922.6	953.4	983.2	1011.5	1039.4
348.15 K, 50000 kPa	803.2	834	864.7	895.4	926.1	956.9	986.5	1014.8	1042.5
348.15 K, 55000 kPa	806.8	837.6	868.3	898.9	929.5	960.2	989.8	1018	1045.7
348.15 K, 60000 kPa	810.1	840.9	871.4	902.1	932.6	963.3	992.7	1020.9	1048.5
358.15 K, 100 kPa	746	778	809.9	842	874.1	906.3	937.3	967	996.1
358.15 K, 1000 kPa	747.1	779.1	811	843.1	875.1	907.3	938.3	967.9	996.9
358.15 K, 5000 kPa	752.5	784.2	815.9	847.7	879.4	911.4	942	971.7	1000.6
358.15 K, 10000 kPa	757.8	790	821.5	853.1	884.7	916.4	947	976.2	1004.9
358.15 K, 15000 kPa	764.1	795.5	826.7	858.2	889.6	921.1	951.4	980.6	1009
358.15 K, 20000 kPa	769.4	800.6	831.8	863	894.2	925.6	955.8	984.7	1013
358.15 K, 25000 kPa	774.3	805.5	836.5	867.6	898.6	929.9	960	988.7	1016.9
358.15 K, 30000 kPa	779	810	841	871.8	902.9	934	963.9	992.6	1020.6
358.15 K, 35000 kPa	783.5	814.4	845.3	876.1	907	938	967.8	996.3	1024.2
358.15 K, 40000 kPa	787.7	818.6	849.4	880.1	910.9	941.8	971.5	999.9	1027.8
358.15 K, 45000 kPa	791.8	822.6	853.3	884	914.7	945.5	975.1	1003.4	1031.2
358.15 K, 50000 kPa	795.7	826.5	857.1	887.8	918.3	949	978.6	1006.8	1034.5
358.15 K, 55000 kPa	799.5	830.2	860.8	891.4	921.9	952.5	982	1010.1	1037.8
358.15 K, 60000 kPa	802.9	832.8	864.2	894.6	925.1	955.7	985	1013.1	1040.9

Reference: the NIST ThermoML archive (doi:10.1016/j.jct.2011.02.008)
